The values below come from patent US10253039B2, “Inhibitors of bacterial DNA gyrase with efficacy against gram-negative bacteria” (priority 2014, dated 2019).

Common to all, as to format: cell-based
Experiment [1] deals with Streptococcus pyogenes. Description: MIC, 20-strain panel. As to the method:
(§1) A microdilution method in 96-well plates was used and the MIC protocol established by the Clinical Laboratory Standards Institute was followed. From a growing subculture, a 1:10000 inoculum of each strain in Luria-Bertani media was prepared and aliquoted 100 μL in 4 columns of wells, except for the top row wells, which contained 200 μL of inoculum. A solution of gyramide C2 was aliquoted into 3 of the wells containing 200 μL and DMSO was added to the 4th well. The liquid in each of wells was mixed with a multi-channel pipet and 100 μL was transferred to the next well and mixed. The 2-fold dilution was continued down the 96-well plate until 100 μL was left, which was discarded. The plates were incubated at 37° C. with shaking for 16-18 hours. The MIC was determined as the lowest concentration that inhibited growth and had no turbidity by visual inspection.
(§2) Minimum inhibitory concentrations of various gyramide compounds against 20 strains of bacteria were determined using the procedure described above.

Experiment [2] deals with Salmonella enterica subsp. enterica typhimurium. Description: MIC, 20-strain panel. As to the method:
as §1, §2

In experiment [3] the test system is E. coli JW5503 (deltolC). Nature of the experiment: MIC, 20-strain panel. The conditions noted are these: Escherichia coli. As to the method: as §1, §2
Experiment [4] has as its system Staphylococcus aureus subsp. aureus. Description: MIC, 20-strain panel. How it is done:
as §1, §2

Experiment [5] concerns Staphylococcus epidermidis. Description: MIC, 20-strain panel. As to the method: as §1, §2
Experiment [6] has as its system Shigella flexneri. Nature of the experiment: MIC, 20-strain panel. As to the method: as §1, §2
The subject of experiment [7] is E. coli MG1655. Description: MIC, 20-strain panel. The note with it: Escherichia coli. How it is done: as §1, §2
For experiment [8], the system named is Klebsiella pneumoniae subsp. pneumoniae. Description: MIC, 20-strain panel. As to the method: as §1, §2
The subject of experiment [9] is Staphylococcus saprophyticus subsp. saprophyticus. Nature of the experiment: MIC, 20-strain panel. How it is done:
as §1, §2

The test system of experiment [10] is Streptococcus agalactiae. Nature of the experiment: MIC, 20-strain panel. How it is done: as §1, §2
For experiment [11], the system named is Edwardsiella tarda. Description: MIC, microdilution in 96-well plates. As to the method: as §1, §2
A general note: Dilution methods test growth across graded concentrations, often in twofold steps.

Experiment [12] deals with E. coli BW25113. Nature of the experiment: MIC, microdilution in 96-well plates. The note with it: Escherichia coli. How it is done:
as §1, §2

Where [13] appears, read: F: Salmonella enterica subsp. enterica Typhimurium.
[14] abbreviates: H: Staphylococcus aureus subsp. aureus, read-out: MIC.
[15] abbreviates: MG1655, A: E. coli MG1655, read-out: MIC.
[16] abbreviates: E: Klebsiella pneumoniae subsp. pneumoniae.
Where [17] appears, read: BW25113, B: E. coli BW25113, read-out: MIC.
The mark [18] stands for this setting: Salmonella enterica subsp. enterica Typhimurium.
The mark [19] stands for this setting: Staphylococcus aureus subsp. aureus, read-out: MIC.
[20] abbreviates: MG1655, E. coli MG1655, read-out: MIC.
Where [21] appears, read: Klebsiella pneumoniae subsp. pneumoniae.
Setting [22] is: BW25113, E. coli BW25113, read-out: MIC.

In brackets after ≈: the same amount, converted by molar mass. Read-outs that look alike come from different tables or passages of the source.

For `O=S(=O)(N[C@@H]1CCN(Cc2ccc(OC3CC3)cc2)C1)c1cccnc1` [Compound 104], the minimal inhibitory concentration (MIC) in [1], in experiment [2] (setting [13]), in experiment [3] (C: E. coli JW5503 (deltolC)), in experiment [4] (setting [14]), in [5] and in experiment [6] (G: Shigella flexneri) was > 8 µg/mL throughout. For the same compound, the MIC in experiment [7] (setting [15]), in [8] (setting [16]), in [9], in experiment [10], in experiment [11] (D: Edwardsiella tarda) and in [12] (setting [17]) was > 8 µg/mL each time.

As for `O=S(=O)(N[C@@H]1CCN(Cc2ccc(OC3CC3)cc2)C1)c1cc(C(F)(F)F)ccc1Cl` [Compound 90], the MIC (usually the least concentration at which growth counts as inhibited) is > 8 µg/mL in [1]; 4 µg/mL (≈ 8.42 µM) in experiment [2] (setting [13]); < 0.0625 µg/mL in [3] (C: E. coli JW5503 (deltolC)); > 8 µg/mL in experiment [4] (setting [14]); > 8 µg/mL in [5]; ~8 µg/mL (≈ 16.8 µM) in experiment [6] (G: Shigella flexneri). The minimal inhibitory concentration (MIC) in [7] (setting [15]) was > 8 µg/mL; in experiment [8] (setting [16]) it was > 8 µg/mL; in experiment [9] it was > 8 µg/mL; in experiment [10] it was > 8 µg/mL; in [11] (D: Edwardsiella tarda), > 8 µg/mL; in [12] (setting [17]) it was ~8 µg/mL (≈ 16.8 µM).

As to `COc1cc(CN2CC[C@@H](NS(=O)(=O)c3cccc(C(F)(F)F)c3)C2)ccc1OC(C)C` [Compound 42], the MIC in [1], in [2] (setting [13]), in experiment [3] (C: E. coli JW5503 (deltolC)), in experiment [4] (setting [14]), in experiment [5] and in experiment [6] (G: Shigella flexneri) was > 8 µg/mL each time. In addition, the minimal inhibitory concentration (MIC) in experiment [7] (setting [15]), in experiment [8] (setting [16]), in experiment [9], in [10], in experiment [11] (D: Edwardsiella tarda) and in experiment [12] (setting [17]) was > 8 µg/mL each time.

For `O=S(=O)(N[C@@H]1CCN(Cc2ccc(OC3CC3)cc2)C1)c1cc(C(F)(F)F)cc(C(F)(F)F)c1` [Compound 128], the minimum inhibitory concentration (MIC) in experiment [1] is > 8 µg/mL; in experiment [2] (setting [13]) it was > 8 µg/mL; in [3] (C: E. coli JW5503 (deltolC)), 8 µg/mL (≈ 15.7 µM); in experiment [4] (setting [14]), > 8 µg/mL; in [5], > 8 µg/mL; in experiment [6] (G: Shigella flexneri), > 8 µg/mL. The minimum inhibitory concentration (MIC) in [7] (setting [15]), in experiment [8] (setting [16]), in experiment [9], in experiment [10], in [11] (D: Edwardsiella tarda) and in experiment [12] (setting [17]) was > 8 µg/mL throughout.

`O=S(=O)(N[C@@H]1CCN(Cc2ccc(-c3ccccc3)cc2)C1)c1cnc2ccccc2c1` [Compound 178]: the minimal inhibitory concentration (MIC) in experiment [1], in experiment [2] (setting [18]), in experiment [3] (E. coli JW5503 (deltolC)), in experiment [4] (setting [19]), in experiment [5] and in experiment [6] was > 8 µg/mL each time. In addition, the MIC in experiment [7] (setting [20]), in [8] (setting [21]), in [9], in [10], in [11] and in experiment [12] (setting [22]) was > 8 µg/mL each time.

For the compound `O=S(=O)(N[C@@H]1CCN(Cc2ccc(-c3ccncc3)cc2)C1)c1cccc(C(F)(F)F)c1` [Compound 14], the MIC was > 8 µg/mL in [1]; > 8 µg/mL in experiment [2] (setting [13]); 2 µg/mL (≈ 4.33 µM) in [3] (C: E. coli JW5503 (deltolC)); > 8 µg/mL in experiment [4] (setting [14]); > 8 µg/mL in experiment [5]; > 8 µg/mL in [6] (G: Shigella flexneri). In addition, the minimal inhibitory concentration (MIC) in experiment [7] (setting [15]), in experiment [8] (setting [16]), in [9], in [10], in [11] (D: Edwardsiella tarda) and in experiment [12] (setting [17]) was > 8 µg/mL in each case.

Consider `CC(C)Oc1c(Cl)cc(CN2CC[C@@H](NS(=O)(=O)c3cccc(C(F)(F)F)c3)C2)cc1Cl` [Compound 98], for which the minimum inhibitory concentration (MIC) in [1], in [2] (setting [13]), in experiment [3] (C: E. coli JW5503 (deltolC)), in experiment [4] (setting [14]), in [5] and in experiment [6] (G: Shigella flexneri) was > 8 µg/mL each time. The minimum inhibitory concentration (MIC) in experiment [7] (setting [15]), in [8] (setting [16]), in experiment [9], in experiment [10], in [11] (D: Edwardsiella tarda) and in experiment [12] (setting [17]) was > 8 µg/mL in each case.

On to `Cc1ccc(S(C)(=O)=O)cc1S(=O)(=O)N[C@@H]1CCN(Cc2ccc(OC(C)C)cc2)C1` [Compound 72], for which the MIC in experiment [1], in experiment [2] (setting [13]), in experiment [3] (C: E. coli JW5503 (deltolC)), in experiment [4] (setting [14]), in experiment [5] and in [6] (G: Shigella flexneri) was > 8 µg/mL each time. Besides, the MIC in experiment [7] (setting [15]), in [8] (setting [16]), in [9], in experiment [10], in [11] (D: Edwardsiella tarda) and in experiment [12] (setting [17]) was > 8 µg/mL throughout.

In the case of `CC(C)Oc1ccc(CN2CC[C@@H](NS(=O)(=O)c3cnccc3Cl)C2)cc1` [Compound 59], the MIC in [1], in [2] (setting [13]), in [3] (C: E. coli JW5503 (deltolC)), in experiment [4] (setting [14]), in experiment [5] and in [6] (G: Shigella flexneri) was > 8 µg/mL in each case. Besides, the MIC in experiment [7] (setting [15]), in experiment [8] (setting [16]), in [9], in [10], in [11] (D: Edwardsiella tarda) and in [12] (setting [17]) was > 8 µg/mL each time.

As to `O=S(=O)(N[C@@H]1CCN(Cc2cn(-c3ccccc3)nn2)C1)c1cccc(C(F)(F)F)c1` [Compound 108], the MIC in experiment [1], in [2] (setting [13]), in experiment [3] (C: E. coli JW5503 (deltolC)), in experiment [4] (setting [14]), in experiment [5] and in [6] (G: Shigella flexneri) was > 8 µg/mL in each case. The MIC in experiment [7] (setting [15]), in experiment [8] (setting [16]), in [9], in experiment [10], in experiment [11] (D: Edwardsiella tarda) and in [12] (setting [17]) was > 8 µg/mL each time.

Turning to `N#Cc1cccc(S(=O)(=O)N[C@@H]2CCN(Cc3nc(-c4ccccc4)cs3)C2)c1` [Compound 34], the minimal inhibitory concentration (MIC) in experiment [1], in [2] (setting [13]), in experiment [3] (C: E. coli JW5503 (deltolC)), in [4] (setting [14]), in experiment [5] and in [6] (G: Shigella flexneri) was > 8 µg/mL in each case. The minimal inhibitory concentration (MIC) in [7] (setting [15]), in experiment [8] (setting [16]), in [9], in experiment [10], in [11] (D: Edwardsiella tarda) and in experiment [12] (setting [17]) was > 8 µg/mL each time.

On to `N#Cc1cccc(S(=O)(=O)N[C@@H]2CCN(Cc3cn(-c4ccccc4)nn3)C2)c1` [Compound 124], for which the MIC in [1], in [2] (setting [13]), in experiment [3] (C: E. coli JW5503 (deltolC)), in experiment [4] (setting [14]), in [5] and in experiment [6] (G: Shigella flexneri) was > 8 µg/mL in each case. The MIC in experiment [7] (setting [15]), in experiment [8] (setting [16]), in [9], in [10], in experiment [11] (D: Edwardsiella tarda) and in experiment [12] (setting [17]) was > 8 µg/mL throughout.

Turning to `N#Cc1ccc(Cl)c(S(=O)(=O)N[C@@H]2CCN(Cc3ccc(-c4ccccc4)cc3)C2)c1` [Compound 11], the MIC is > 8 µg/mL in experiment [1]; 4 µg/mL (≈ 8.85 µM) in [2] (setting [13]); < 0.062 µg/mL in [3] (C: E. coli JW5503 (deltolC)); > 8 µg/mL in experiment [4] (H: Staphylococcus aureus subsp. aureus); > 8 µg/mL in experiment [5]; > 8 µg/mL in experiment [6] (G: Shigella flexneri). The minimal inhibitory concentration (MIC) in experiment [7] (MG1655, A: E. coli MG1655) was > 8 µg/mL; in experiment [8] (setting [16]), > 8 µg/mL; in [9], > 8 µg/mL; in experiment [10], > 8 µg/mL; in experiment [11] (D: Edwardsiella tarda), > 8 µg/mL; in experiment [12] (BW25113, B: E. coli BW25113) it was ~8 µg/mL (≈ 17.7 µM).

For `CC(C)Oc1ccc(CN2CC[C@@H](NS(=O)(=O)c3ccc(C#N)nc3)C2)cc1` [Compound 138], the minimal inhibitory concentration (MIC) in experiment [1], in experiment [2] (setting [18]), in experiment [3] (E. coli JW5503 (deltolC)), in [4] (setting [19]), in experiment [5] and in [6] was > 8 µg/mL in each case. For the same compound, the minimal inhibitory concentration (MIC) in experiment [7] (setting [20]), in experiment [8] (setting [21]), in experiment [9], in experiment [10], in experiment [11] and in experiment [12] (setting [22]) was > 8 µg/mL throughout.
